Data on 15 molecules can be found in patent US20170216252A1, “ANTI-BACTERIAL PYRUVATE KINASE MODULATOR COMPOUNDS, COMPOSITIONS, USES AND METHODS” (SIMON FRASER UNIVERSITY, priority 2014, published 2017).

Like-named read-outs stand apart in the source and are kept apart here.

Data set [1] concerns the target T1, Human R PK (Homo sapiens, UniProt P30613).
T1 construct: His tag; made in house; host or cells: E. coli BL-21 (DE3); construct a gift of Dr. L. Cantley
Description: Human PK selectivity, LDH-coupled enzyme assay. The class given is biochemical. Conditions: read-out: % Inhibition Human R. The text has this: (§1) Genomic DNA of MRSA strain Sanger 252 extracted using DNeasy Tissue Kit™ (Qiagen™) was used as a template to generate the His-tagged MRSA PK. Human cDNA from MCF-7 breast cancer cell line (courtesy of Dr. J Wong, BC Cancer Research Center (Vancouver, Canada) was used as a template to generate the full-length human M2 PK enzyme. The following primer sets were used creating appropriate restriction sites (NdeI and XhoI sites underlined): For cloning of MRSA PK: M27F 5′-[…]-3′ and M27R 5′-[…]-3′, for cloning of human M2 PK isoform: hM2F 5′-[…]-3′ and hM2R 5′-[…]-3′. The resulting PCR fragments for each construct were cloned into the NdeI and XhoI unique sites of the bacterial expression vector pET-28a (+) (Novagen™). […] The sequence and the correct reading frame of all constructs were verified by sequencing. Human M1, R and L PK constructs in pET-28-a(+) vectors (courtesy of Dr. L. Cantley, Harvard Medical, School (Boston, USA)) were used to generate relevant recombinant His-tagged human PK isoforms.
(§2) MRSA and human constructs in pET-28a(+) were used to express relevant recombinant PK proteins in E. coli BL-21 (DE3). The proteins were expressed and purified using Ni-NTA agarose (Qiagen™) according to the manufacturer's protocol. Briefly, cells were grown to an absorbance of 0.4-0.5 at 600 nm in 2×YT medium, then induced with 0.1 mM IPTG for 3 h at 20° C. Cells were lysed by sonication on ice (3×10-s bursts with a 30-s recovery between bursts) in lysis buffer (0.2 mg/ml lysozyme, 50 mM Tris pH 7.5, 10 mM MgCl2, 200 mM NaCl, 100 mM KCl, 10% glycerol, 10 mM imidazole, 0.5% NP-40 and 1 mM DTT containing Complete™ protease inhibitor). Cell lysates were cleared by centrifugation (18,000×g in a Beckman™ JA-20 rotor) for 20 min at 4° C. and PK isoforms were purified by batch binding to Ni-NTA resin. The resins were then packed in columns (1×2 cm) and washed with 400 column volumes lysis buffer containing 30 mM imidazole. His-tagged PK isoforms were eluted with the same buffer containing 300 mM imidazole. The proteins were dialyzed overnight at 4° C. against 2000 volumes of ice-cold 30 mM Tris pH 7.5, 25 mM KCl, 5 mM MgCl2, 10% glycerol and 1 mM DTT to remove imidazole. All purification steps were done at 4° C.; enzymes were flash-frozen and stored at −70° C. Enzymatic activity of frozen protein preparations was stable for at least 10 months and up to 5 freeze/thaw cycles. Purity and physical integrity of proteins were assessed using SDS-polyacrylamide gel electrophoresis (SDS-PAGE) followed by coomassie blue staining. Protein concentration was estimated by Bradford assay (Bio-Rad Protein Assay™) using bovine serum albumin as a standard.
(§3) Candidate MRSA PK inhibitors were assayed for their ability to inhibit enzymatic activities of MRSA and human PKs. PK activity was determined using a continuous assay coupled to lactate dehydrogenase (LDH) in which the change in absorbance at 340 nm owing to oxidation of NADH was measured using a Benchmark Plus™ microplate spectrophotometer (Bio-Rad Laboratories, Hercules, Calif.). […] Reactions were initiated by the addition of 15 nM of one of the PK enzymes. PK activity proportional to the rate of change at 340 nm was expressed as specific activity (μmol/min/mg), which is defined as the amount of PK that catalyzes the formation of one micromole of either product per minute. Inhibitors were dissolved in DMSO with the final concentration of the solvent never exceeding 1% of the assay volume. IC50 values were calculated by curve fitting on a four-parameter dose-response model with variable slope using Graphpad Prism 5.0™ (GraphPad™ Software Inc., La Jolla, Calif.). In all studies, less than 10% of total PEP was exhausted during the reaction. Reactions were performed at 30° C. for up to 5 min. All values determined represent at least two measurements, in triplicate (Tables 1-6) or duplicate unless mentioned otherwise. […]

Data set [2] concerns the target T2, Human M1 PK (Homo sapiens, UniProt P14618).
T2 construct: His tag; made in house; host or cells: E. coli BL-21 (DE3); construct a gift of Dr. L. Cantley
Put plainly: Human PK selectivity, LDH-coupled enzyme assay. Format: biochemical. The conditions noted are these: read-out: % Inhibition Human M1.
Excerpt: as §1, §2, §3

Data set [3] deals with T3, Human M2 PK (Homo sapiens, UniProt P14618).
T3 construct: used as a template to generate the full-length human M2 PK enzyme; His tag (pET-28a(+) vector) (N); made in house; host or cells: E. coli BL-21 (DE3)
T3 sequence (P14618 whole entry): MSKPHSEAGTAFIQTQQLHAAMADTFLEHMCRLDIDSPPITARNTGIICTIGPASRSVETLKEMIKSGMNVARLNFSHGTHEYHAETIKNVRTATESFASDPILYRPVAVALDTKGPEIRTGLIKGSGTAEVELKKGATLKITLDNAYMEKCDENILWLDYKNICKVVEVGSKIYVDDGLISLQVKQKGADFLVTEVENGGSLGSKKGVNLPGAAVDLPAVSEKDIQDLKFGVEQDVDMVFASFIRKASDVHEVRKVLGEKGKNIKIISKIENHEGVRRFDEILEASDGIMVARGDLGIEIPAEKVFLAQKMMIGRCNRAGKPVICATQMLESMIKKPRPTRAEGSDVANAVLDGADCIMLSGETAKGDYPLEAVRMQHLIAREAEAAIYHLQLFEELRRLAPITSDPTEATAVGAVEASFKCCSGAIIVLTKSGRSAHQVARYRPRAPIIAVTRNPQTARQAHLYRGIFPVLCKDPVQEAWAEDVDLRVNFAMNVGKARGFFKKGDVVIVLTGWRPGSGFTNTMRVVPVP
Description: Human PK selectivity, LDH-coupled enzyme assay. The conditions noted are these: read-out: % Inhibition Human M2. The class given is biochemical.
Excerpt: as §1, §2, §3

Data set [4] concerns the target T4, Human L PK (Homo sapiens, UniProt P30613).
T4 construct: His tag; made in house; host or cells: E. coli BL-21 (DE3); construct a gift of Dr. L. Cantley
Description: Human PK selectivity, LDH-coupled enzyme assay. Format: biochemical. The conditions noted are these: read-out: % Inhibition Human L.
Excerpt: as §1, §2, §3

T1 sequence (P30613 whole entry): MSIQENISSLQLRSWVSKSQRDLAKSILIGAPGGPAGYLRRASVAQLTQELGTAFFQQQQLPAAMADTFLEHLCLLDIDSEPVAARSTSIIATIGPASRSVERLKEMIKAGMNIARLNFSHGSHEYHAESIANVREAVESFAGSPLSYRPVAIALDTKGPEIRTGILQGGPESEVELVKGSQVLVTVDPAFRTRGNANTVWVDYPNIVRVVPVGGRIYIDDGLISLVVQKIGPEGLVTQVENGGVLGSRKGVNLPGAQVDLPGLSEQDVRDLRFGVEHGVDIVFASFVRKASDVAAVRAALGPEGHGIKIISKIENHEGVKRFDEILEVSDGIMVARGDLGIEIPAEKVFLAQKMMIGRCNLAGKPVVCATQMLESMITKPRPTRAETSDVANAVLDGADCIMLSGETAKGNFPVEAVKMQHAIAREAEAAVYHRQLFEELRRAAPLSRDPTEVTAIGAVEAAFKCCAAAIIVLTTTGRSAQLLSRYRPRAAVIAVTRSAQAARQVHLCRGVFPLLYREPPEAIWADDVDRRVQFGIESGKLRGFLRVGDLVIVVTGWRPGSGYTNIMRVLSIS
T4 sequence (P30613 1-543 isoform P30613-2): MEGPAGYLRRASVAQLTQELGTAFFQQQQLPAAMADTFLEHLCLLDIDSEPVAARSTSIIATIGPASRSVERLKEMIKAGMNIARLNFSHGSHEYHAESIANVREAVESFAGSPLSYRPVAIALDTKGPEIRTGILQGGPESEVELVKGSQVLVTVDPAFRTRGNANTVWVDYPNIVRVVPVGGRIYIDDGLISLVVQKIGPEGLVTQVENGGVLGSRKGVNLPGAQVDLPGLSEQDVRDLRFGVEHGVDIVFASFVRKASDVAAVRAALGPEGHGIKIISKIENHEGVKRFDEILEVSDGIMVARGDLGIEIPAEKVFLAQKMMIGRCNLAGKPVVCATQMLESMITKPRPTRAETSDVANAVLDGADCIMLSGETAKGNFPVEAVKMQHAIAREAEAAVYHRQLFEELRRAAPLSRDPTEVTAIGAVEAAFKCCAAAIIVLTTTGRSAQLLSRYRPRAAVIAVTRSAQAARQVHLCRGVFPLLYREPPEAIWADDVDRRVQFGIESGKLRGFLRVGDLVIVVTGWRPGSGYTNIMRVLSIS
T2 sequence (P14618 1-531 isoform P14618-2): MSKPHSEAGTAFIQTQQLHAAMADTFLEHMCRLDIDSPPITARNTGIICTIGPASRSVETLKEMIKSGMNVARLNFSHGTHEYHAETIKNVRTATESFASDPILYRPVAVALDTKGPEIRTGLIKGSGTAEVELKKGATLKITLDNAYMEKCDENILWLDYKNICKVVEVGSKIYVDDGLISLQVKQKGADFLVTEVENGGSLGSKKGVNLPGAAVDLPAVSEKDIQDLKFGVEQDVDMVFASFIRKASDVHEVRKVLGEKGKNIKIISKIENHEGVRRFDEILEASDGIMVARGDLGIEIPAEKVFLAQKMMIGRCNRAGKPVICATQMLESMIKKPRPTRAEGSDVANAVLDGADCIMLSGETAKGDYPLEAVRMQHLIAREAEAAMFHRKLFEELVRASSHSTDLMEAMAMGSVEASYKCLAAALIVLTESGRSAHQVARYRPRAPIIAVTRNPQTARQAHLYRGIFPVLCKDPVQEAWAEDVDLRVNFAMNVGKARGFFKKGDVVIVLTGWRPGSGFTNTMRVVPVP

Broadly, the inhibition is the relative decrease from the control value, in per cent. In general, melting point refers to the temperature, or range, at which the solid turns liquid. Molecule `Brc1ccc2cc(-c3cc4ccc(Br)cc4[nH]3)[nH]c2c1` [Compound 10b, 6,6′-Dibromo-1H,1′H-2,2′-biindole] yielded a melting point of 266 to 267 °C. Further, in data set [1] (at 10 μM), the inhibition at 10 µM was 18.3%. Also, the inhibition at 10 µM in data set [2] (at 10 μM) is 10.3%. Also, the inhibition at 10 µM in data set [3] (at 10 μM) is 0.1%. The inhibition at 10 µM in data set [4] (at 10 μM) was 7.9%.
Taken in the same sequence, the figures for `Brc1ccc2[nH]c(-c3cc4ccc(Br)cc4[nH]3)cc2c1` [Compound 10c, 5,6-Bibromo-1H,1′H-2,2′-biiindole] were 270 to 272 °C, 13.6%, 6.9%, 8.7% and 6.1%.
`Brc1ccc2[nH]c(-c3cc4cc(Br)ccc4[nH]3)cc2c1` [Compound 10i, 5,5′-Bibromo-1H,1′H-2,2′-biindole]: the melting point lay in the range of 304 to 306 °C. For the same molecule, the inhibition at 10 µM in data set [1] (at 10 μM) is 24.4%. For the same molecule, the inhibition at 10 µM in data set [2] (at 10 μM) was 12.3%. The inhibition at 10 µM in data set [3] (at 10 μM) turned out to be 0.5%. Moreover, the inhibition at 10 µM in data set [4] (at 10 μM) was 9.8%.
`Brc1ccc2cc(-c3cc4cc(Br)c(Br)cc4[nH]3)[nH]c2c1` [Compound 10k, 5,6,6′-Tribromo-1H,1′H-2,2′-biindole]: the inhibition at 10 µM in data set [1] (at 10 μM) is 41%; in data set [2] (at 10 μM) it was 16.1%; in data set [3] (at 10 μM) it was 20.8%; in data set [4] (at 10 μM), 26.8%.
As for `Brc1cc2cc(-c3cc4cc(Br)c(Br)cc4[nH]3)[nH]c2cc1Br` [Compound 10l, 5,5′,6,6′-Tetrabromo-1H,1′H-2,2′-biindole], the inhibition at 10 µM is 20.7% in data set [1], 11.1% in data set [2], 2.3% in data set [3] and 8.2% in data set [4].
`Cn1c(-c2cc3ccc(Br)cc3[nH]2)cc2cc(Br)ccc21` [Compound 12a, 5,6′-Dibromo-1-methyl-1H,1′H-2,2′-biindole] displayed a melting point of 180 to 182 °C. Also, the inhibition at 10 µM in data set [1] (at 10 μM) was determined as 2.7%. Moreover, the inhibition at 10 µM in data set [2] (at 10 μM) came to 13.9%. For the same molecule, in data set [3] (at 10 μM), the inhibition at 10 µM worked out at 9.1%. The inhibition at 10 µM in data set [4] (at 10 μM) is 2.8%.
Consider `OCCn1c(-c2cc3ccc(Br)cc3[nH]2)cc2cc(Br)ccc21` [Compound 17, 2-(5,6′-Dibromo-1H, 1′H-[2,2′-biindol]-1-yl)ethanol], for which the inhibition at 10 µM in data set [1] (at 10 μM) stood at 25.2%; in data set [2] (at 10 μM) it was 14.6%; in data set [3] (at 10 μM), 12.1%; in data set [4] (at 10 μM), 6.8%.
Consider `CN1CCN(CCn2c(-c3cc4ccc(Br)cc4[nH]3)cc3cc(Br)ccc32)CC1` [Compound 20a, 5,6′-Dibromo-1-(2-(4-methylpiperazin-1-yl)ethyl)-1H,1′H-2,2′-biindole], for which the melting point amounted to 140 °C. In addition, in data set [1] (at 10 μM), the inhibition at 10 µM is 26.1%. Further, the inhibition at 10 µM in data set [2] (at 10 μM) was 3.2%. Further, in data set [3] (at 10 μM), the inhibition at 10 µM is 1.7%. In addition, the inhibition at 10 µM in data set [4] (at 10 μM) stood at 16.8%.
Take `Brc1ccc2c(c1)cc(-c1cc3ccc(Br)cc3[nH]1)n2CCN1CCOCC1` [Compound 20b, 4-(2-(5,6′-dibromo-1H,1′H-[2,2′-biindol]-1-yl)ethyl)morpholine]: the inhibition at 10 µM in data set [1] (at 10 μM) was determined as 50.7%; in data set [2] (at 10 μM) it was 13.1%; in data set [3] (at 10 μM), 3.5%; in data set [4] (at 10 μM), 32.1%.
Taken in the same sequence, the figures for `Brc1ccc2cc(-c3nc4ccccc4s3)[nH]c2c1` [Compound 22a, 2-(6-Bromo-1H-indol-2-yl)benzo[d]thiazole] were 21.6%, 12.4%, 3% and 7.8%.
`Brc1ccc2cc(-c3cc4ccccc4o3)[nH]c2c1` [Compound 22b, 2-(Benzofuran-2-yl)-6-bromo-1H-indole] had a melting point of 196 to 198 °C. Also, the inhibition at 10 µM in data set [1] (at 10 μM) was -5.5%. Further, the inhibition at 10 µM in data set [2] (at 10 μM) turned out to be 5.3%. Besides, the inhibition at 10 µM in data set [3] (at 10 μM) worked out at 0.4%. Also, the inhibition at 10 µM in data set [4] (at 10 μM) was -6%.
`Brc1ccc2[nH]c(C#Cc3cc4ccc(Br)cc4[nH]3)cc2c1` [Compound 25c, 6-Bromo-2-((5-bromo-1H-indol-2-yl)ethynyl)-1H-indole] showed a melting point of 236 to 237 °C. The inhibition at 10 µM in data set [1] (at 10 μM) came out at 27.8%. Also, the inhibition at 10 µM in data set [2] (at 10 μM) came out at 19.5%. Also, the inhibition at 10 µM in data set [3] (at 10 μM) was 8.7%. In addition, in data set [4] (at 10 μM), the inhibition at 10 µM turned out to be 14%.
For the molecule `Brc1ccc2cc(/C=C/c3cc4ccccc4[nH]3)[nH]c2c1` [Compound 27a, (E)-2-(2-(1H-indol-2-yl)vinyl)-6-bromo-1H-indole], the inhibition at 10 µM in data set [1] (at 10 μM) was 23.8%; in data set [2] (at 10 μM), 16.1%; in data set [3] (at 10 μM), -0.9%; in data set [4] (at 10 μM) it was 12.9%.
Taken in the same sequence, the figures for `Brc1ccc2cc(CCc3cc4ccc(Br)cc4[nH]3)[nH]c2c1` [Compound 28a, 1,2-bis(6-bromo-1H-indol-2-yl)ethane] were 24.1%, 9.9%, 1.3% and 9.7%.
With `COc1cc(-c2cc3ccccc3[nH]2)ccc1-c1cc2ccc(Br)cc2[nH]1` [Compound 33e, 2-(4-(1H-indol-2-yl)-2-methoxyphenyl)-6-bromo-1H-indole], the inhibition at 10 µM turned out to be 13.5% in data set [1] (at 10 μM), 7.3% in data set [2] (at 10 μM), 14.6% in data set [3] (at 10 μM) and 4.3% in data set [4] (at 10 μM).
